Laboratory results published in patent US20170101669A1, “Nucleic Acid Based Sensor and Methods Thereof” (National Centre for Biological Sciences, priority 2014, published 2017).

Key:
[1] = test system: endosomal compartments of Drosophila hemocytes; assay: Chloride concentration in endosomal compartments of hemocytes under chemical perturbation, measured with Clensor; assay type: cell-based; details: +NPPB
Description: Hemocytes are washed with 1×M1 buffer (150 mM NaCl, […], 1 mM CaCl2, 1 mM MgCl2, 20 mM HEPES pH 7.2) prior to labeling. Hemocytes are incubated with 2 μM of Clensor sample (diluted in 1×M1 buffer) for 5-10 minutes (depending on the signal again, *for measurements in early endosomes 5 min pulse is given*) and then washed 3-4 times with 1×M1 and then chased for an additional 5 to 120 minutes. For a chase longer than 5 minutes, 1×M1 is replaced by complete insect medium and transferred to a 20° C. incubator. For 5 minute chases, cells are washed and then imaged in 1×M1.
For Chloride ion […] measurement experiments, after pulsing with Clensor, cells are chased for (i) 5 min (Early Endosome), (ii) 60 min (Late endosome) and (iii) 120 min (Lysosome). Each set of cells are then imaged live, acquiring two images for each set of cells. (i) Ex=480/20, Dichroic=500-600 BP, Em=535/40 and (ii) Ex=640/30, Dichroic=665 LP, Em=690/50.
Hemocytes are pulsed with 2 μM of Clensor sample for 30 minutes (for development of a signal), washed 3-4 times with 1×M1 followed by a 5 minute chase in same medium. Cells are then fixed with 200 μL 2.5% paraformaldehyde (PFA) for 20 minutes at room temperature, quickly washed 3 times and retained in 1×M1. To obtain intracellular Chloride ion (Cl^−) calibration curve, perfusate and endosomal Chloride ion (Cl^−) concentration are equalized by incubating the previously fixed cells in 120 mM KCl/KNO3, 20 mM NaCl/NaNO3, 1 mM CaCl2/Ca(NO3)2, 1 mM MgCl2/Mg(NO3)2, and 10 mM HEPES at pH 7.2, with Chloride ion (Cl^−) concentration from about 0-80 mM (NO3^− replacing Cl^−) for about 3 hours at room temperature. Chloride clamping solution contains Nigericin (10 μM)+Valinomycin (10 μM)+CCCP (5 μM)+Monensin (10 μM)+Bafilomycin (200 nM). The cells are imaged in the same buffer.
Here, the hemocytes are treated with a non-specific chloride ion channel blocker NPPB (5-nitro-2-(3-phenylpropylamino)-benzoate).

Drosophila hemocytes = assay: Bafilomycin perturbation of endosomal chloride concentration and pH in hemocytes; assay type: cell-based
Description: Bafilomycin is used to perturb endosomal Chloride ion concentration [Cl^−] and these perturbations are followed by changes in R/G ratios in Clensor labeled endosomes of Drosophila hemocytes. pH is simultaneously measured in this system by pulsing with about 2 mg/mL 10 kDa FITC-dextran (FD10) for about 5 minutes at room temperature and chased for about 120 minutes at about 20° C. The cells are then incubated with 1×M1 buffer containing about 200 nM Bafilomycin followed by a 120 minute chase at about 20° C. in the same buffer.
Intracellular pH is measured by the Dual Excitation Method. λEx480/λEx 430 emission ratios show about 2.1 fold decrease in pH as a function of time till about 120 minutes post endocytosis, indicating the expected decrease in pH in hemocytes (FIG. 16a, black). Upon Bafilomycin treatment, endosomal pH is reversed as given by gradual increase (˜2.2 fold) in λEx480/λEx 430 emission ratios (FIG. 16a, black). […]
FIG. 16 depicts the integrity of Clensor during endosomal maturation. […] Chloride concentrations and pH values are monitored after Bafilomycin treatment. […] Endosomal pH is monitored by ratios of the intensity at 530 nm when the FITC is excited at 480 nm and 430 nm (λex480/λex 430). […]

Compound: O=C(O)c1cc([N+](=O)[O-])ccc1NCCCc1ccccc1 [NPPB, 5-nitro-2-(3-phenylpropylamino)-benzoate]
- Mean [Cl−] ± s.e.m, EE ([1]; early endosomes, 5 min): 9.3 ± 1.5 mM
- Mean [Cl−] ± s.e.m, LE ([1]; late endosomes, 60 min): 33.8 ± 2.5 mM
- Mean [Cl−] ± s.e.m, LY ([1]; lysosomes, 120 min): 86.5 ± 3.5 mM

Compound: Bafilomycin
- increase in λEx480/λEx 430 emission ratios (reversal of endosomal pH) (Drosophila hemocytes; 200 nM Bafilomycin, FITC-dextran labeled hemocytes, after 120 min chase): ~2.2 fold
- change of R/G ratios of Clensor labeled endosomes (endosomal [Cl−]) (Drosophila hemocytes; after 200 nM Bafilomycin treatment): R/G ratios gradually decrease
